This passage reports inhibition and IC50 results from US8445509B2, “Fused heterocyclic derivatives and use thereof” (Takeda Pharmaceutical Company Limited, priority 2008, dated 2013).

Experiment [1] concerns Human gastric cancer cell line MKN-45. Put plainly: Human gastric cancer cell line MKN-45 growth inhibitory test. Type of experiment: cell-based. The conditions noted are these: MKN-45, 72 h, culture for 3 days. As for the experimental part:
Human gastric cancer cell line MKN-45 (RIKEN BioResource Center) was cultured in RPMI1640 (Invitrogen) containing 10% bovine fetal serum in a gas incubator at 37° C., 5% CO2. MKN-45 cells were treated with trypsin/EDTA and recovered. The cells were suspended in RPMI1640 containing 0.3% bovine fetal serum, plated on a 96 well flat bottom plate at a cells density of 3000 cells/50 μL per well. After culturing overnight, various concentrations of test substance were dissolved in RPMI1640 containing 0.3% bovine fetal serum and added to each well by 50 μL. After culture for 3 days, a Cell counting kit-8 reagent (DOJINDO LABORATORIES) was added to each well by 10 μL, and reacted in an incubator at 37° C., 5% CO2 for 2-3 hr. After the reaction, the absorbance of each well at 450 nm was measured by a microtiter plate reader. The concentration of a test substance necessary for inhibiting the growth by 50% (IC50 value) was calculated using a cell proliferation rate with addition of the test substance at each concentration and according to the nonlinear regression analysis using GraphPad Prism [Sigmoidal dose response (variable slope)]. The cell proliferation rate (%) with addition of a test substance at each concentration was calculated by the following formula. As a positive control (100% growth), dimethyl sulfoxide was added instead of a test substance. As a negative control (0% growth), the compound of Reference Example 136 (WO2005/030140, Entry 104), which is a known c-Met inhibitor, was added in large excess (10 μM) instead of a test substance.

The test system of experiment [2] is Human umbilical vein-derived vascular endothelial cells (HUVEC). The experiment is described as follows: Vascular endothelial cell proliferation inhibitory test (VEGF-stimulated HUVEC). Type of experiment: cell-based. The conditions noted are these: 120 h, 5 days of culture with VEGF. The procedure: Human umbilical vein-derived vascular endothelial cells (HUVEC purchased from KURABO […] LTD.) were cultured in an incubator at 37° C., 5% carbon dioxide in a vascular endothelial cell medium (Invitrogen) containing 3% bovine fetal serum and 2.5 ng/mL basic fibroblast growth factor. To be specific, HUVEC was suspended in a vascular endothelial cell medium containing the aforementioned 3% bovine fetal serum and plated on a 96 well flat bottom plate by 50 μL (3000 cells) each well. After culture overnight, various concentrations of the test substance and 120 ng/mL of vascular endothelial growth factor (VEGF) were dissolved in a vascular endothelial cell medium containing 3% bovine fetal serum and added to each well by 50 μL. After 5 days of culture, a Cell counting kit-8 reagent (DOJINDO LABORATORIES) was added to each well by 10 μL, and the mixture was reacted in an incubator at 37° C., 5% carbon dioxide for 2-3 hr. The absorbance at 450 nm was measured by a microtiter plate reader and the cell proliferation inhibitory activity was determined. Using the absorbance with addition of a test substance at each concentration and based on the nonlinear least-squares analysis using a logistic curve of SAS system NLIN procedure, the concentration of the test substance (IC50 value) necessary for showing 50% of the value obtained without addition of the test substance was calculated.

Experiment [3] deals with Human blood cell cancer cell line MV-4-11. The experiment is described as follows: Human blood cell cancer cell line MV-4-11 growth inhibitory test. It counts as cell-based. The conditions noted are these: MV4-11, 72 h, culture for 3 days. The procedure: Human blood cell cancer cell line MV-4-11 (ATCC) was cultured in IMDM (Invitrogen) containing 10% bovine fetal serum in an incubator at 37° C., 5% CO2. MV-4-11 cells were treated with trypsin/EDTA and recovered. The cells were suspended in IMDM containing 10% bovine fetal serum, plated on a 96 well flat bottom plate at a cells density of 30,000 cells/50 μL per well. After culturing overnight, various concentrations of test substance were dissolved in IMDM containing 10% bovine fetal serum and added to each well by 50 μL. After culture for 3 days, a Cell counting kit-8 reagent (DOJINDO LABORATORIES) was added to each well by 10 μL, and reacted in an incubator at 37° C., 5% CO2 for 2-3 hr. After the reaction, the absorbance of each well at 450 nm was measured by a microtiter plate reader. The concentration of a test substance necessary for inhibiting the growth by 50% (IC50 value) was calculated using a cell proliferation rate with addition of the test substance at each concentration and according to the nonlinear regression analysis using GraphPad Prism [Sigmoidal dose response (variable slope)].

For experiment [4], the target named is T1, VEGFR2 intracellular domain protein (Homo sapiens, UniProt P35968).
T1 construct: made in house; host or cells: SF-21 insect cells, recombinant baculovirus BAC-VEGFR2
The experiment is described as follows: Vascular endothelial growth factor receptor 2 (VEGFR2) kinase inhibitory activity (AlphaScreen). It counts as biochemical. The procedure:
Human vascular endothelial growth factor receptor 2 (hereinafter to be referred to as VEGFR2) gene was cloned by PCR using cDNA Libraries Human Placenta (Clontech) as a template. […] The primer base sequence is shown below.
SF-21 cells were sown at 1×10^6 cells/mL to Sf-900II SFM medium (1 L, Invitrogen) containing 10% fetal bovine serum (trace), 50 mg/L Gentamicin (Invitrogen) and 0.1% Pluronic F-68 (Invitrogen), and shaking culture was performed using a 2 L volume Erlenmeyer flask at 27° C., 100 rpm. After culturing for 24 hrs, recombinant baculovirus BAC-VEGFR2 (13.4 mL) was added to the mixture, and the mixture was further cultured for 3 days. The culture medium was centrifuged at 2,000 rpm for 5 min to give virus-infected cells. The infected cells were washed with a phosphate buffered saline (Invitrogen), centrifuged under the same conditions, and the cells were preserved at −80° C. The cryopreserved cells were thawed in ice, suspended in buffer A (50 mM Tris buffer (30 mL, pH 7.4) containing 20% glycerol, 0.15 M NaCl) supplemented with Complete Protease Inhibitor (Boehringer), and ruptured 3 times with a Polytron homogenizer (Kinematica) at 20,000 rpm for 30 sec. The ruptured medium was clarified by centrifugation at 40,000 rpm for 30 min and filtered with a 0.45 μm filter. The filtrate was passed through a column packed with Anti-FLAG M2 Affinity Gel (4 mL, Sigma) at a flow rate of about 0.5 mL/min. The column was washed with buffer A, and eluted with buffer A containing 100 μg/mL of FLAG peptide. The eluate was concentrated with Vivaspin 20 (Vivascience) having a molecular weight cut off of 30K. The buffer of this concentrate was exchanged using NAP™ 25 column (Amersham Bioscience) equilibrated with buffer A. The fractions containing intracellular domain protein of VEGFR2 were collected, glycerol was added to the final concentration of 50% and cryopreserved at −80° C.
(§1) A test compound dissolved in dimethyl sulfoxide (DMSO) was diluted with a buffer (50 mM Tris-HCl (pH 7.5), 5 mM MgCl2, 5 mM MnCl2, 2 mM dithiothreitol, 0.01% Tween-20). To this compound solution (5 μL) was added a buffer (10 μL) containing 50 ng/mL of VEGFR2 intracellular domain protein and 250 ng/mL of biotin labeled polypeptide biotinyl-poly-Glu:Tyr (4:1) (CIS bio International). […] The reaction solution was allowed to stand at 25° C. for 16 hrs, and the wells were counted using a plate reader (Fusion™ (PerkinElmer)). The kinase inhibitory rate (%) of the test compound was calculated by the following formula: Inhibitory rate (%)=(1−(count of test compound−blank)÷(control−blank))×100
(§2) The count of the solution reacted without addition of the compound was used as a “control”, and the count of the solution without the compound and ATP was used as a “blank”.
For orientation: Bead proximity is the source of the signal in Alpha formats.

The target of experiment [5] is T2, c-Met intracellular domain protein (Homo sapiens, UniProt P08581).
T2 construct: 2.5 ng/ml of c-Met intracellular domain protein (Millipore); purchased Millipore
Put plainly: Hepatocyte growth factor receptor (c-Met) kinase inhibitory activity (AlphaScreen). It counts as biochemical. The procedure: as §1, with “containing 2.5 ng/ml” for “containing 50 ng/mL”, “of c-Met” for “of VEGFR2”, “protein (Millipore)” for “protein”
as §2

Experiment [6] addresses T3, FLT3 intracellular domain protein (Homo sapiens, UniProt P36888).
T3 construct: 7.5 ng/ml of FLT3 intracellular domain protein (Millipore); purchased Millipore
T3 sequence (P36888 564-993 limits assumed): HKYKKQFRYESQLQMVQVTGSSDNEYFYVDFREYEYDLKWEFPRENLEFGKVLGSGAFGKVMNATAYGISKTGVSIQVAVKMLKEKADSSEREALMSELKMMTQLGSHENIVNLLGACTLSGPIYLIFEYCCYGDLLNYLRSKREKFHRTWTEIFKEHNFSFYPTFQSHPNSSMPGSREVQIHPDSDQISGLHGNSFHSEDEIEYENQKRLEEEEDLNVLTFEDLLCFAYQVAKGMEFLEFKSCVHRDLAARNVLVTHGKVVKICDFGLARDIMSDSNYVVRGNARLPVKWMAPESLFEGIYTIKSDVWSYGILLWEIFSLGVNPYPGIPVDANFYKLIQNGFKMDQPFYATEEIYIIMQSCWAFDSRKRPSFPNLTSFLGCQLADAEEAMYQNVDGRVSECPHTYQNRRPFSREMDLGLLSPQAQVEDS
Put plainly: Fms Like Tyrosine Kinase 3 (FLT3) kinase inhibitory activity (AlphaScreen). Type of experiment: biochemical. As for the experimental part: A test compound dissolved in dimethyl sulfoxide (DMSO) was diluted with a buffer (50 mM Tris-HCl (pH 7.5), 5 mM MgCl2, 5 mM MnCl2, 2 mM dithiothreitol, 0.01% Tween-20). To this compound solution (5 μL) was added a buffer (10 μL) containing 7.5 ng/ml of FLT3 intracellular domain protein (Millipore) and 250 ng/mL of biotin labeled polypeptide biotinyl-poly-Glu:Tyr (4:1) (CIS bio International). At 5 min after mixing kinase enzyme and the compound and biotin labeled polypeptide, to the obtained mixture was added a buffer (10 μL) containing ATP (5 μM), the mixture was allowed to react at 25° C. for 10 min and the reaction was quenched with 25 μL of a stop solution (100 mM EDTA disodium salt, 62.5 mM HEPES buffer (pH 7.4), 250 mM NaCl, 0.1% bovine serum albumin, 10 μg/mL AlphaScreen assay streptavidin donor beads (Streptavidin Donor Beads: PerkinElmer), 10 μg/mL AlphaScreen assay anti-phosphotyrosine recognition antibody Y-100 binding acceptor beads (Anti-phosphotyrosine (P-Tyr-100) Acceptor beads: PerkinElmer)). The reaction solution was allowed to stand at 25° C. for 16 hrs, and the wells were counted using a plate reader (Envision™ (PerkinElmer)). The kinase inhibitory rate (%) of the test compound was calculated by the following formula: Inhibitory rate (%)=(1−(count of test compound−blank)÷(control−blank))×100
as §2

Experiment [7] deals with T4, Tie2 intracellular domain protein (Homo sapiens, UniProt Q02763).
T4 construct: 50 ng/mL of Tie2 intracellular domain protein (Millipore); purchased Millipore
The experiment is described as follows: TIE2 kinase inhibitory activity (AlphaScreen). Type of experiment: biochemical. As for the experimental part: A test compound dissolved in dimethyl sulfoxide (DMSO) was diluted with a buffer (50 mM Tris-HCl (pH 7.5), 5 mM MgCl2, 5 mM MnCl2, 2 mM dithiothreitol, 0.01% Tween-20). A buffer (10 μL) containing 50 ng/mL of Tie2 intracellular domain protein (Millipore) and 250 ng/ml, of biotin labeled polypeptide biotinyl-poly-Glu:Tyr (4:1) (CIS bio International) was added to the compound solution (5 μL). At 5 min from the mixing of the kinase enzyme, the compound and the biotin labeled polypeptide, a buffer (10 μL) containing 5 μM ATP was added, and the mixture was reacted at 25° C. for 10 min. The reaction was quenched by the addition of 25 μL of a stop solution (100 mM EDTA disodium salt, 62.5 mM HEPES buffer (pH 7.4), 250 mM NaCl, 0.1% bovine serum albumin, 10 μg/ml AlphaScreen assay streptavidin donor beads (Streptavidin Donor beads: PerkinElmer), 10 μg/ml, AlphaScreen assay anti-phosphotyrosine recognition antibody PT-66 binding acceptor beads (Anti-phosphotyrosine (PT-66) Acceptor beads: PerkinElmer)). The reaction solution was allowed to stand at 25° C. for 16 hrs, and the […] were counted using a plate reader (Fusion™ (PerkinElmer)). The kinase inhibitory rate (%) of the test compound was calculated by the following formula: Inhibitory rate (%)=(1−(count of test compound−blank)÷(control−blank))×100
as §2

Where [8] appears, read: 1 μM test substance, read-out: inhibitory rate (%) at 1 μM.
The mark [9] stands for this setting: 1 μM test compound, read-out: inhibitory rate (%) at 1 μM.

Usually IC50 stands for the concentration at which inhibition is half-maximal.

T2 sequence (P08581 956-1390 limits assumed): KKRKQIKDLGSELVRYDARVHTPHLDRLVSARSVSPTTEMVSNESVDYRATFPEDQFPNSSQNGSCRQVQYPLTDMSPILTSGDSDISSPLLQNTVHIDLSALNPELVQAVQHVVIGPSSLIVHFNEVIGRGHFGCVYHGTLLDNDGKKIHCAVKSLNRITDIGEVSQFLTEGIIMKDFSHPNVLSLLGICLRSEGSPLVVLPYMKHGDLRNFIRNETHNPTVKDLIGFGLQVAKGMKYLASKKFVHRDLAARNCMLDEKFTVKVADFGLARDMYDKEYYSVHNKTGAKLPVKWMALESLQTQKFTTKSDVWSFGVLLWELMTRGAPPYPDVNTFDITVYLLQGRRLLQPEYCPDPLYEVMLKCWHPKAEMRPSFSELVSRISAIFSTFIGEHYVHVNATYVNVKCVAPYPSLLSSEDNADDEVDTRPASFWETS
T1 sequence (P35968 786-1356 limits assumed): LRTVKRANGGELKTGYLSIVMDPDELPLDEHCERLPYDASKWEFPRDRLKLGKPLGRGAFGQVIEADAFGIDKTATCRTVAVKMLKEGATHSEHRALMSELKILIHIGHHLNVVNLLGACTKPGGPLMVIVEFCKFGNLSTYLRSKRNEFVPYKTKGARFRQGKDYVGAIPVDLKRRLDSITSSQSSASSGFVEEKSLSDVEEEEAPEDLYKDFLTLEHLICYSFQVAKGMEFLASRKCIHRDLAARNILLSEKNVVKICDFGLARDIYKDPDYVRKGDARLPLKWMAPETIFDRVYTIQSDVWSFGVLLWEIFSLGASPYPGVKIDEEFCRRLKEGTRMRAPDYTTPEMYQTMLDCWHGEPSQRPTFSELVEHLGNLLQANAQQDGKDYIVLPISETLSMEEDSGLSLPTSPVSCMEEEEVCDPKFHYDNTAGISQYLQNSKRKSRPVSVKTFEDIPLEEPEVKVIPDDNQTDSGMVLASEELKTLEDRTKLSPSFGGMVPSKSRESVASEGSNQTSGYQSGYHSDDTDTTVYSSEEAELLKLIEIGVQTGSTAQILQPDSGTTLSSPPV
T4 sequence (Q02763 770-1124 limits assumed): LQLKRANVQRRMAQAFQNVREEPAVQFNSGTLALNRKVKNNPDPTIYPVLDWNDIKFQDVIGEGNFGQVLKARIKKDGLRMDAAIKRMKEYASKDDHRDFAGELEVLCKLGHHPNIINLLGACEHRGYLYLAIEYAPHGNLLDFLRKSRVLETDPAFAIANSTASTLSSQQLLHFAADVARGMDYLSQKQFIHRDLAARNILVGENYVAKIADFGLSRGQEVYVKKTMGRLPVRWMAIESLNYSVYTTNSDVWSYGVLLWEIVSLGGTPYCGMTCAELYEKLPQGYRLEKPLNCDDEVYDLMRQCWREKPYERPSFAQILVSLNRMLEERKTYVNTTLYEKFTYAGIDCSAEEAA

In the case of `O=C(Nc1nc2ccc(Oc3ccc(NC(=O)C4(C(=O)Nc5ccccc5)CC4)cc3F)nc2s1)C1CC1` [Example 20, N-[4-({2-[(cyclopropylcarbonyl)amino][1,3]thiazolo[5,4-b]pyridin-5-yl}oxy)-3-fluorophenyl]-N′-phenylcyclopropane-1,1-dicarboxamide], the inhibition at 1 µM in experiment [1] (setting [8]) is at least 80%; in experiment [2] (setting [8]), at least 40%; in experiment [3] (setting [8]) it was at least 90%; in experiment [4] (setting [9]), at least 70%; in experiment [5] (setting [9]), at least 80%. Further, the IC50 was at most 1000 nM in experiment [1] (read-out: IC50 value); at most 2000 nM in experiment [2]; at most 1000 nM in experiment [3]; at most 1000 nM in experiment [4]; at most 1000 nM in experiment [5].

For the compound `Cc1ccc(C(=O)Nc2ccc(Oc3ccc4nc(NC(=O)C5CC5)cn4c3)c(F)c2)c(=O)n1-c1ccc(F)cc1` [Example 90, N-[4-({2-[(cyclopropylcarbonyl)amino]imidazo[1,2-a]pyridin-6-yl}oxy)-3-fluorophenyl]-1-(4-fluorophenyl)-6-methyl-2-oxo-1,2-dihydropyridine-3-carboxamide acetate], the IC50 in experiment [6] and in experiment [7] was at most 1000 nM in each case.
